Counter-ions that a name gives are not always drawn.
How the values were obtained:
[1] = target: Proton Pump (H^+/K^+-ATPase) (Sus scrofa, UniProt P19156); experiment: Inhibitory effects on proton pump (H^+/K^+-ATPase) activity; type: biochemical; conditions: hog gastric vesicles; K^+ stimulated H^+/K^+-ATPase activity; 30 minutes at 37° C.
[2] = tested on: basal gastric acid secretion; experiment: Inhibitory effects on basal gastric acid secretion in pylorus-ligated rats (Shay's rat model); type: in vivo, Sprague Dawley (SD) rats; conditions: oral, one hour before pylorus ligation, total acid output 5 hours after ligation
Description: Inhibitory effects of the compounds of the present invention on basal gastric acid secretion were performed according to Shay's rat model (Shay, H., et al., 1945, gastroenterology, 5, 43-61). Male Sprague Dawley (SD) rats (200±10 g body weight) were divided into […] (n=5) and fasted for 24 hours with free access to water. Control group was orally administered with 0.5% methylcellulose alone and the other groups were orally administered with test compounds suspended in 0.5% methylcellulose solution at doses of 1, 3 and 10 mg/kg/5 ml one hour before pylorus ligation.
Under ether anesthesia, the abdomens of the rats were incised and then the pylorus was ligated. 5 hours after ligation, the animals were sacrificed, and the gastric contents were collected. The collected contents were centrifuged at 1,000×g for 10 minutes to obtain the gastric juice. Total acid output was measured by 0.01N NaOH volume (ueq/ml) for automatic titration of the gastric juice to pH 7.0 and the ED50s of test compounds were calculated using the Litchfield-Wilcoxon method. % inhibitory activity was calculated from the following equation and the results are shown in Table 2. % inhibitory activity of test compound=(total acid output of control group−total acid output of the group treated with test compounds)/total acid output of control group×100

[3] = target: T1, hog gastric H^+/K^+-ATPase (Sus scrofa, UniProt P19156); experiment: Reversible inhibition of hog gastric H^+/K^+-ATPase (washout method); type: biochemical
T1 construct: from tissue; host or cells: hog gastric fundic mucosa; gastric vesicles (microsomes), lyophilized
T1 sequence (P19156 2-1034 limits assumed): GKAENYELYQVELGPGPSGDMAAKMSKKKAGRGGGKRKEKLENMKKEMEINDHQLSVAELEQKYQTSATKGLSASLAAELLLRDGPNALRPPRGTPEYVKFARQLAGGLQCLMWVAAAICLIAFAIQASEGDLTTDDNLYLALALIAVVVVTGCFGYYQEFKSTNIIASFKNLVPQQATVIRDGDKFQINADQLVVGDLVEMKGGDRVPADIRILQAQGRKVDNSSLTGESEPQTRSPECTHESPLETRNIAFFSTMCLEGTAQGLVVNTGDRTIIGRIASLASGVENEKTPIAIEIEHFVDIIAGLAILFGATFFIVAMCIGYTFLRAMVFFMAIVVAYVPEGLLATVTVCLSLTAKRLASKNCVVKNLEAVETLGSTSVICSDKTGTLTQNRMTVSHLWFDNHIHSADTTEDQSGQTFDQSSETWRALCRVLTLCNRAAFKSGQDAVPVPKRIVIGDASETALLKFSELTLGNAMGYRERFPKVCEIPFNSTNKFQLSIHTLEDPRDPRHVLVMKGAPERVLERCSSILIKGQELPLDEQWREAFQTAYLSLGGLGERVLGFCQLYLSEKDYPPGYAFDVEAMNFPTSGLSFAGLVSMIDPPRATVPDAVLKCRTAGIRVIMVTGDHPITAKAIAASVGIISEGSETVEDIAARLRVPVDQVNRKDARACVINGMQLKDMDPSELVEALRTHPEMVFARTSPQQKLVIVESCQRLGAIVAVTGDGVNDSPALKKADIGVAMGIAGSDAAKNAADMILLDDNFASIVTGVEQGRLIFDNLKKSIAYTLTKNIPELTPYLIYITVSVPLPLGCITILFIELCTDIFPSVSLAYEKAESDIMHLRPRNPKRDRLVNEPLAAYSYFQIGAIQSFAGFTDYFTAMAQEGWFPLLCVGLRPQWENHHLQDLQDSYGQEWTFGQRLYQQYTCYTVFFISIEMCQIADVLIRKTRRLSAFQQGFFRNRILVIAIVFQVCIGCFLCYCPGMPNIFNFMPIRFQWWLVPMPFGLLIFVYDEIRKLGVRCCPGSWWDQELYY
T1 sequence (P18434 whole entry partner): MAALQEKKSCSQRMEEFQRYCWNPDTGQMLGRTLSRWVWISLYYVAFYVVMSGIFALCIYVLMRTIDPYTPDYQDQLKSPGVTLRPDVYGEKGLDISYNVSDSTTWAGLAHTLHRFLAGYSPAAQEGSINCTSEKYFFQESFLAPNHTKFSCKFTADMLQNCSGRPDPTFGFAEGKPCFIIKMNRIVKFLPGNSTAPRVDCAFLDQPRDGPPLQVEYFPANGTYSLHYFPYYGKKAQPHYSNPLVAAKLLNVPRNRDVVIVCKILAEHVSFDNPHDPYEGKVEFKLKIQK
Description: 3-1. Preparation of Gastric Vesicles
[…]. IX. Fraction and purification of K-ATPase-containing vesicles by zonal centrifugation and free-flow electrophoresis techinque. Biochem. Biophy. Acta. (BBA)-Biomembranes 465, 311-330, 1977). This matertal was lyophilized and stored at −70° C. The protein content of gastric vesicles was determined by the Bradford method using bovine serum albumin as a standard (Bradford M M, A rapid and sensitive method for the quantitation of microgram quantities of protein utilizing the principle of protein-dye binding. Anal Biochem. 72, 248-254, 1976).
3-2. Determination of Reversible Inhibition of Hog Gastric H^+/K^+-ATPase
Activity of H^+/K^+-ATPase in hog microsome (lyophilized vesicle) was measured by the inorganic phosphate released from ATP using an one-step calorimetric detection method at the concentration at which the test compounds have 50% inhibition of the proton pump (Chan K M, Delfert D, and Junger K D, A direct calorimetric assay for Ca^2+-stimulated ATPase activity. Anal Biochem, 157, 375-380, 1986). The mode of action of test compounds on H^+/K^+-ATPase was investigated according to the Washout method (Beil W, Staar U, and Sewing K F, Substituted thieno[3,4-d]imidazoles, a novel group of H^+/K+-ATPase inhibitors. Differentiation of their inhibition charactertstics from those of omeprazole. Eur. J. Pharmacol., 187, 455-67, 1990). […]

Sequence of Proton Pump (H^+/K^+-ATPase) (P19156 2-1034 limits assumed): as the sequence (P19156 2-1034 limits assumed) above
Sequence of Proton Pump (H^+/K^+-ATPase) (P18434 whole entry partner): as the sequence (P18434 whole entry partner) above

Row | IC50 [1] | inhibition of H^+/K^+-ATPase activity after washout ([3]; after washout, compared with non-treated group) | inhibition of H^+/K^+-ATPase activity before washout ([3]; before washout, test compound at the concentration of 50% inhibition of the proton pump) | SMILES | ED50 [2]
1 | 0.064 µM |  |  | Cc1c(C)n(Cc2ccccc2)c2c(N(C)Cc3ccc(F)cc3)nccc12 [Example 141, 1-benzyl-7-[N-(4-fluorobenzyl)-N-methyl]amino-2,3-dimethyl-1H-pyrrolo[2,3-c]pyridine hydrochloride] | 2.3 mg/kg
2 | 0.19 µM |  |  | Cc1[nH]c2c(N3CCc4ccccc4C3)nccc2c1C.Cl [Example 468, 7-(1,2,3,4-tetrahydroisoquinolin-2-yl)-2,3-dimethyl-1H-pyrrolo[2,3-c]pyridine hydrochloride] | 5.2 mg/kg
3 | 0.052 µM |  |  | Cc1c(C)n(Cc2ccccc2)c2c(N3CCc4ccccc4C3)nccc12.Cl [Example 469, 1-benzyl-7-(1,2,3,4-tetrahydroisoquinolin-2-yl)-2,3-dimethyl-1H-pyrrolo[2,3-c]pyridine hydrochloride] | 1.4 mg/kg
4 | 0.32 µM |  |  | Cc1c(C)n(C)c2c(N3CCc4ccccc4C3)nccc12.Cl [Example 470, 7-(1,2,3,4-tetrahydroisoquinolin-2-yl)-1,2,3-trimethyl-1H-pyrrolo[2,3-c]pyridine hydrochloride] | 4.4 mg/kg
5 | 0.47 µM |  |  | CCCn1c(C)c(C)c2ccnc(N3CCc4ccccc4C3)c21.Cl [Example 473, 1-propyl-7-(1,2,3,4-tetrahydroisoquinolin-2-yl)-2,3-dimethyl-1H-pyrrolo[2,3-c]pyridine hydrochloride] | 2.8 mg/kg
6 | 0.11 µM |  |  | Cc1nc(Cn2c(C)c(C)c3ccnc(N4CCc5ccccc5C4)c32)cs1.Cl [Example 474, 1-(2-methylthiazol-4-ylmethyl)-7-(1,2,3,4-tetrahydroisoquinolin-2-yl)-2,3-dimethyl-1H-pyrrolo[2,3-c]pyridine hydrochloride] | 11.9 mg/kg
7 | 0.3 µM |  |  | Cc1ccc(Cn2c(C)c(C)c3ccnc(N4CCc5ccccc5C4)c32)cc1.Cl [Example 477, 1-(4-methylbenzyl)-7-(1,2,3,4-tetrahydroisoquinolin-2-yl)-2,3-dimethyl-1H-pyrrolo[2,3-c]pyridine hydrochloride] | 2 mg/kg
8 | 0.032 µM | did not inhibit | 50% | Cc1c(C)n(Cc2cccc(F)c2)c2c(N3CCc4ccccc4C3)nccc12.Cl [Example 480, 1-(3-fluorobenzyl)-7-(1,2,3,4-tetrahydroisoquinolin-2-yl)-2,3-dimethyl-1H-pyrrolo[2,3-c]pyridine hydrochloride] | 1.8 mg/kg
9 | 0.36 µM |  |  | COc1ccc(Cn2c(C)c(C)c3ccnc(N4CCc5ccccc5C4)c32)cc1.Cl [Example 482, 1-(4-methoxybenzyl)-7-(1,2,3,4-tetrahydroisoquinolin-2-yl)-2,3-dimethyl-1H-pyrrolo[2,3-c]pyridine hydrochloride] | 2.4 mg/kg
10 | 0.42 µM |  |  | C=COCCn1c(C)c(C)c2ccnc(N3CCc4ccccc4C3)c21.Cl [Example 511, 1-(2-vinyloxyethyl)-7-(1,2,3,4-tetrahydroisoquinolin-2-yl)-2,3-dimethyl-1H-pyrrolo[2,3-c]pyridine hydrochloride] | 2.1 mg/kg
11 | 0.146 µM |  |  | Cc1c(C)n(Cc2cccc(F)c2)c2c(N3CCc4ccccc4C3C)nccc12.Cl (stereo not shown) [Example 557, 2-[1-(3-fluorobenzyl)-2,3-dimethyl-1H-pyrrolo[2,3-c]pyridin-7-yl]-1-methyl-1,2,3,4-tetrahydroisoquinoline hydrochloride] | 4.1 mg/kg

The next lines start with the compound.

Row | SMILES | IC50 [1] | inhibition of H^+/K^+-ATPase activity after washout ([3]; after washout, compared with non-treated group) | inhibition of H^+/K^+-ATPase activity before washout ([3]; before washout, test compound at the concentration of 50% inhibition of the proton pump) | ED50 [2]
12 | Cc1c(C)n(CC(C)C)c2c(NCc3ccc(F)cc3)nccc12.Cl [Example 208, 7-(4-fluorobenzylamino)-1-isobutyl-2,3-dimethyl-1H-pyrrolo[2,3-c]pyridine hydrochloride] | 0.094 µM |  |  | 1.3 mg/kg
13 | Cc1ccccc1CNc1nccc2c(C)c(C)n(CC(C)C)c12.Cl [Example 210, 1-isobutyl-2,3-dimethyl-7-(2-methylbenzylamino)-1H-pyrrolo[2,3-c]pyridine hydrochloride] | 0.054 µM |  |  | 1.9 mg/kg
14 | Cc1c(C)n(Cc2ccc(F)cc2)c2c(NCc3ccc(Cl)cc3)nccc12.Cl [Example 218, 7-(4-chlorobenzylamino)-1-(4-fluorobenzyl)-2,3-dimethyl-1H-pyrrolo[2,3-c]pyridine hydrochloride] |  |  |  | 4.1 mg/kg
15 | CCCn1c(C)c(C)c2ccnc(NCc3ccc(Cl)cc3)c21.Cl [Example 229, 7-(4-chlorobenzylamino)-2,3-dimethyl-1-propyl-1H-pyrrolo[2,3-c]pyridine hydrochloride] | 0.24 µM |  |  | 2.2 mg/kg
16 | Cc1[nH]c2c(-c3ccc4ccccc4c3)nccc2c1C.Cl [Example 402, 2,3-dimethyl-7-(naphthalen-2-yl)-1H-pyrrolo[2,3-c]pyridine hydrochloride] | 0.063 µM |  |  | 11.2 mg/kg
17 | C=CCn1c(C)c(C)c2ccnc(N3CCc4ccccc4C3)c21.Cl [Example 484, 1-allyl-7-(1,2,3,4-tetrahydroisoquinolin-2-yl)-2,3-dimethyl-1H-pyrrolo[2,3-c]pyridine hydrochloride] | 0.0037 µM |  |  | 1.4 mg/kg
18 | Cc1c(C)n(Cc2ccc(C(C)(C)C)cc2)c2c(N3CCc4ccccc4C3)nccc12.Cl [Example 507, 1-(4-tert-butylbenzyl)-7-(1,2,3,4-tetrahydroisoquinolin-2-yl)-2,3-dimethyl-1H-pyrrolo[2,3-c]pyridine hydrochloride] |  |  |  | 3.1 mg/kg
19 | C=CCn1c(C)c(C)c2ccnc(N3CCc4ccccc4C3C)c21.Cl (stereo not shown) [Example 553, 2-(1-allyl-2,3-dimethyl-1H-pyrrolo[2,3-c]pyridin-7-yl)-1-methyl-1,2,3,4-tetrahydroisoquinoline hydrochloride] | 0.026 µM |  |  | 2.1 mg/kg
20 | C=CCn1c(C)c(C)c2ccnc(N3CCc4cc(F)ccc4C3C)c21.Cl (stereo not shown) [Example 563, 2-(1-allyl-2,3-dimethyl-1H-pyrrolo[2,3-c]pyridin-7-yl)-6-fluoro-1-methyl-1,2,3,4-tetrahydroisoquinoline hydrochloride] | 0.049 µM |  |  | 3.5 mg/kg

From US7662832B2, “Pyrrolo[2,3-c]pyridine derivatives and processes for the preparation thereof” (priority 2004, dated 2010)
